Test results reported in article PMC6688628, “N-Substituted Pyrrole Derivative 12m Inhibits HIV-1 Entry by Targeting Gp41 of HIV-1 Envelope Glycoprotein” (Frontiers in Pharmacology, 2019).

Assays:
[1] = XTT assay, TZM-bl cells; assay type: cell-based; conditions: human
Description: (§1) The in vitro cell viability of NSPD-12m on HIV-1 target cells (U87-CD4-CXCR4, U87-CD4-CCR5, TZM-bl, and MT-2 cells) and HIV effector cells (CHO-WT cells) was analyzed by an XTT colorimetric assay. Briefly, 100 µl of 5 × 10^5/ml cells was mixed and incubated with 100 µl of NSPD-12m at graded concentrations at 37°C for 3 days. Then, 50 µl of XTT solution (1 mg/ml) containing 0.02 µM of phenazinemethosulphate (PMS) was added to each well, and the cells were incubated at 37°C for another 4 h. The absorbance at 450 nm was measured with an ELISA reader. The 50% cytotoxicity concentrations (CC50) were calculated using the CalcuSyn software ([Chou and Talalay, 1984]).

[2] = XTT assay, MT-2 cells; assay type: cell-based; conditions: human
Description: as §1

[3] = tested on: HIV-1SF162 (R5 strain) Env pseudotyped virus; assay: microbe, parasite or virus in culture; assay type: cell-based; conditions: Human immunodeficiency virus 1, single-cycle infection, luciferase
[4] = tested on: HIV-1JR-FL (R5 strain) Env pseudotyped virus; assay: microbe, parasite or virus in culture; assay type: cell-based; conditions: Human immunodeficiency virus 1, single-cycle infection, luciferase
[5] = tested on: HIV-1HXB2 (X4 strain) Env pseudotyped virus; assay: microbe, parasite or virus in culture; assay type: cell-based; conditions: Human immunodeficiency virus 1, single-cycle infection, luciferase
[6] = tested on: VSV-G pseudotyped virus; assay type: cell-based, vesicular stomatitis virus
[7] = tested on: HIV-1 Env-mediated fusion of CHO-WT cells with MT-2 cells; assay: HIV-1 Env-mediated cell-cell fusion (syncytium formation); assay type: cell-based; conditions: Human immunodeficiency virus 1, MT2; CHO-WT effector cells, MT-2 target cells; 48 h
Description: Here, a noninfectious cell–cell fusion assay was used to determine the effect of NSPD-12m on the early step of HIV-1 entry into a target cell as described previously ([Li et al., 2010]). Briefly, 1 × 10^5 CHO-WT cells expressing the HIV-1 envelope glycoprotein gp160 (as the effector cells) were preincubated with graded concentrations of NSPD-12m at 37°C for 30 min. Then, 1 × 10^5 MT-2 cells expressing the CD4 receptor and the CXCR4 coreceptor (as the target cells) were added and cocultured for another 48 h. The obvious syncytia could be counted under an inverted microscope (Nikon, Japan). Four fields per well were examined randomly. The EC50 values were calculated as described previously ([Chou and Talalay, 1984]).

[8] = tested on: HIV-1 R5 virus; assay: Cell-cell HIV-1 R5 transmission, MT-2 to CEMx174 5.25 M7 cells; assay type: cell-based; conditions: Human immunodeficiency virus 1; infected MT-2 to CEMx174 5.25 M7 cells; luciferase
Description: Inhibition of fusion between MT-2 cells infected by HIV-1 strains (X4 and R5 viruses) with CEMx174 5.25 M7 cells, which express CD4 and both coreceptors, CXCR4 and CCR5, was determined by a luciferase assay. Briefly, MT-2 cells were infected with the corresponding HIV-1 strains for 7 days. The infected MT-2 cells were washed three times and resuspended in culture medium to 2 × 10^5/ml. Then, 50 μl of a compound at graded concentrations in triplicate was incubated with equal volumes of HIV-1-infected MT-2 cells at 37°C for 30 min. Next, 100 μl of CEMx174 5.25 M7 cells (4 × 10^5/ml) was added, and the cells were incubated at 37°C for 3 days. The cells were collected, washed, and lysed with the lysing reagent included in the luciferase kit (Promega, Corp., Madison, Wis). Aliquots of cell lysates were transferred to 96-well flat-bottom luminometer plates (Costar), followed by the addition of luciferase substrate (Promega). Luciferase activity was measured using an Ultra 384 luminometer. ADS-J1 was used as a positive control for all cell–cell fusion assays.

[9] = target: T1, gp41 6-HB (N36/C34) (Human immunodeficiency virus type 1 group M subtype B, UniProt P04578); assay: CD spectroscopy of N36/C34 alpha-helical conformation; assay type: biochemical, HIV-1; conditions: 20-µM compound preincubated with N36 before the addition of C34
T1 construct: purchased GL Biochem of China; host or cells: chemical solid-phase Fmoc synthesis
Description: The effects of NSPD-12m on the formation of the secondary α-helix structures of the peptides N36 and C34 were detected by CD spectroscopy as described previously ([Liu et al., 2005]; [Zhang et al., 2018]). Briefly, the peptide N36 (10 µM in PBS) was incubated with NSPD-12m (20 µM in PBS) or PBS at 37°C for 30 min, followed by incubation with the peptide C34 (10 µM in PBS) at 37°C for another 30 min. To further confirm that NSPD-12m inhibited the formation of secondary α-helix structures, the peptide N36 was incubated with the peptide C34 at 37°C for 30 min before the addition of the compound. ADS-J1 (40 µM in PBS) was used as a positive control. The reported CD spectra of the peptides N36 and C34 and the mixture of N36, C34, and the compounds described previously were obtained at 25°C using a Jasco 715 spectropolarimeter (Jasco Inc., Japan) with a 5.0-nm bandwidth, 0.1-nm resolution, 0.1-cm path length, 4.0-s response time, and 50-nm/min scanning speed. The spectra were corrected by the subtraction of a blank corresponding to the solvent. The quantities of compounds with α-helix structures were estimated from the molar ellipticity at 222 nm using Jasco software utilities.

[10] = target: T2, synthetic peptide N36 (gp41 NHR) (Human immunodeficiency virus type 1 group M subtype B, UniProt P04578); assay: Surface plasmon resonance binding to N36; design: species or system HIV-1; conditions: SPR, compound immobilized on chip, N36 injected, 25°C; read-out: binding affinity (KD) to N36
T2 construct: purchased GL Biochem of China; host or cells: chemical solid-phase Fmoc synthesis
Description: N36 at different concentrations (125, 250, and 500 µM in PBS) was injected at a flow rate of 2 µl/s with an association and dissociation time of 300 s at 25°C. At the end of each cycle, glycine–HCl buffer (pH 2.0) at a flow rate of 3 µl/s was used to regenerate the surface of the sensor chip platform with a regeneration time of 300 s. The binding affinity (KD) was calculated using the PlexeraDE data analysis module and GraphPad Prism 5.0 software.

[11] = tested on: HIV-1JR-FL Env mutant W571A pseudovirus; assay type: cell-based; conditions: compared with wild-type HIV-1JR-FL pseudovirus
[12] = tested on: HIV-1 NL4-3(36G)V38A,N42D; conditions: T20-resistant NL4-3(36G)V38A,N42D; p24 ELISA; mean ± SD
[13] = tested on: HIV-1 NL4-3(36G)N42T,N43K; conditions: T20-resistant NL4-3(36G)N42T,N43K; p24 ELISA; mean ± SD

T1 sequence (P04578 546-581): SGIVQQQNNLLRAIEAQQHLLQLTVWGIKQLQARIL
T2 sequence (P04578 546-581): as above

Work on `Cc1cc(/C=C2\SC(=S)N(Cc3ccccc3C(F)(F)F)C2=O)c(C)n1-c1ccc(O)c(C(=O)O)c1` [NSPD-12m] yielded a CC50 at 3 days [1] of 79 ± 11.4 µM, a CC90 at 3 days [1] of 118 ± 18 µM and a CC50 at 3 days [2] of 67.1 ± 11 µM. For the same compound, the CC90 at 3 days [2] was 124 ± 70.2 µM, the EC50 [3] was ~19.7 µM and the EC50 [4] was ~14 µM. The EC50 [5] was ~23.1 µM, the “inhibition of VSV-G pseudovirus infection” value [6] was “could not be strongly inhibited” and the EC50 [7] was 14.4 ± 1.24 µM. The EC50 [8] was 1.42 ± 0.3 µM, the “α-helical content of the 6-HB (CD, 222 nm)” value [9] was “clearly reduced” and the Kd [10] was 0.411 µM. For the same compound, the “inhibitory activity against W571A mutant pseudovirus” value [11] was “retained the inhibitory activity”, the IC50 [12] was 22.4 ± 2.84 µM and the IC90 [12] was 32.5 ± 4.95 µM. The IC50 [13] was 4.23 ± 1.92 µM and the IC90 [13] was 29.7 ± 2.28 µM.
